Results taken from US20220280607A1, “Treatment of Heart Defects and Conditions in Pediatric Patients” (University of Pittsburgh - Of the Commonwealth System of …, priority 2019, published 2022).

Legend:
[1] = system: cardiomyocytes of newborn mice; assay: Mouse pharmacological treatment of newborn mice: binucleated cardiomyocytes, cardiomyocyte endowment, cell cycle activity, heart weight; assay type: in vivo; conditions: for increase of cardiomyocyte endowment: counting fixation-digested hearts, FIG. 12D
Protocol: […] An equal volume of phosphate buffered saline (PBS) was injected in the control groups.
Isolation of intact cardiomyocytes for quantification: We used a previously validated fixation digestion method to isolate intact cardiomyocytes from fresh or frozen myocardium for quantification (Mollova, M., et al. “Cardiomyocyte proliferation in human heart growth” Proceedings of the National Academy of Sciences January 2013, 110 (4) 1446-1451; DOI: 10.1073/pnas.1214608110). The myocardium was cut into 1 cubic millimeter (mm^3) sized tissue blocks followed by incubation with 3.7% formaldehyde at room temperature for 1.8 hours. After being washed with PBS 3 times to remove the formaldehyde, the fixed tissue blocks were digested in enzyme solution (Collagenase B, 3.6 mg/ml; Collagenase D, 4.8 mg/ml) at 37 degrees Celsius (° C.), with 10 revolutions per minute (rpm) overhead rotation. The digested cells were collected every 24 hours from the supernatant, and the undigested tissue was re-suspended with fresh enzyme solution until all of the tissue pieces were digested. All of the digested cells from the same heart were then combined and allowed to settle to the bottom of the tube. The cell pellet was collected for further study.
Counting of cardiomyocytes after fixation and digestion: All fractions from the digestion of a heart were combined in 2 milliliters (mL) PBS and cardiomyocytes were quantified using a hemocytometer.
Intact cardiomyocytes in suspension. To assess M-phase, intact cardiomyocytes were isolated by fixation-digestion. The solution containing the stained cells was then transferred to 8-well chambered cover glass (400 μl/well). After the cells were settled down to the bottom of the chambers, the number of mono/bi/multinucleated cardiomyocytes were counted with a fluorescence microscope, and the percentage of mono/bi/multinucleated cardiomyocytes was calculated. To quantify the proportion of H3P-positive cardiomyocytes, the concentration of stained cardiomyocytes in suspension (Ccardiomyocytes) was first measured using a hemocytometer. The cell suspension (400 μl) was then transferred to a well of a chamber slide, and the total number of H3P-positive cardiomyocytes (HH3P+) inside the well was counted with a TiE epifluorescence microscope. The proportion of the H3P-positive cardiomyocytes (PH3P+) was calculated using the following formula: […]
Heart sections: To determine S-phase, BrdU (40 μg/g body) was administered to P7 ICR mice and the hearts were resected at P8, fixed, and cryosectioned at 15 μm thickness. From each heart, four heart sections at a distance of 300 μm were selected and imaged by tile scanning with a Nikon A1R confocal microscope. The total number of BrdU-positive cardiomyocytes at the selected heart sections was counted. The total area of the selected heart sections was measured by Fiji software. The density of BrdU-positive cardiomyocytes (cells/mm^2) in the hearts was calculated using the following equation: […]
Intact cardiomyocytes in suspension. Cardiomyocytes were isolated from fresh or frozen (human or mouse) ventricle myocardium using the fixation-digestion method, followed by immunostaining as described above. The cells were then imaged and quantified with a Nikon A1R microscope for mono/bi/multi-nucleation.

[2] = system: human fetal cardiomyocytes; assay: Cytokinesis failure in cultured human fetal cardiomyocytes (β-adrenergic receptor signaling pathway studies); assay type: cell-based
Protocol: Primary cardiomyocyte culture experiments: Neonatal (mouse or rat) cardiomyocytes or human fetal cardiomyocytes were plated in 4-well chamber slides pre-coated with fibronectin (10 μg/ml) at a density of 200,000 cells/well and cultured with DMEM/high glucose (for mouse and rat cardiomyocytes) or IMDM (for fetal human cardiomyocytes) containing 10% fetal bovine serum (FBS) and recombinant neuregulin 1 (rNRG1, 100 nanograms per milliliter (ng/ml)) overnight. All treatments and BrdU (30 micromolar (μM)) were added on the next day.
β-adrenergic receptor signaling pathway studies: Forskolin (10 μM), propranolol (10 μM), dobutamine (10 μM), or a combination of propranolol (10 μM) and dobutamine (10 μM) were added to the culture from day 1 to day 3. The cells were collected for examining gene expression or immunofluorescence microscopy at day 3.
Cardiomyocytes cultured on glass surfaces. […] The BrdU-positive nuclei, cell-cell boundaries (Pan-Cadherin antibody), and cardiomyocyte markers (α-actinin or troponin I antibody) were labeled by immunofluorescence. The stained cells were imaged under Nikon confocal microscope. The binucleated cardiomyocytes and all BrdU-positive cardiomyocytes were quantified using Fiji software.

[3] = system: cardiomyocytes from infants with ToF/PS; assay: ToF/PS myocardium tissue (organotypic) culture: binucleated BrdU-labeled cardiomyocytes; assay type: cell-based, human; conditions: propranolol 10 μM + dobutamine 10 μM, ToF/PS organotypic cultures, FIG. 14E
Protocol: ToF/PS myocardium tissue culture: Discarded myocardium samples were collected during ToF/PS surgery, cut into ˜1 mm^3 tissue blocks, and cultured in IMDM media containing 10% FBS, recombinant neuregulin 1 (rNRG1, 100 ng/ml), and BrdU (30 μM) for 6 days. Samples were treated with forskolin (10 μM), propranolol (10 μM), dobutamine (10 μM), or a combination of propranolol (10 μM) and dobutamine (10 μM).
Cultured ToF/PS myocardium. Cardiomyocytes were isolated from cultured myocardium with the fixation-digestion method. After denaturing the DNA with 2N HCl and neutralization with 2 Normal (N) sodium hydroxide (NaOH), immunofluorescence antibody labeling was performed in solution. The proportion of binucleated and BrdU-positive was quantified with a Nikon A1R microscope.

CC(C)NCC(O)COc1cccc2ccccc12 (centres unmarked) [propranolol, 1-naphthalen-1-yloxy-3-(propan-2-ylamino)propan-2-ol]
fewer cardiomyocytes undergoing cytokinesis failure than PBS-treated pups ([1]; at P8): 13.6%
additional cardiomyocytes predicted to be generated by enabling completion of cytokinesis ([1]; at P8, back-of-the-envelope calculation from endowment of PBS-treated pups at P4): 0.22×10^6 cardiomyocytes
propranolol-induced increase of endowment between P4 and P8 (treated minus PBS) ([1]; calculated from the counts): 0.18×10^6 cardiomyocytes
heart weight ([1]; newborn mice, 2 i.p. injections per day, FIG. 16A, 16B): not changed
increase of cardiomyocyte endowment ([1]; newborn mice, at P4, 10 μg/g, 2 i.p. injections per day): 22%
increase of cardiomyocyte endowment ([1]; newborn mice, at P8, 2 i.p. injections per day, 12H): 30%
cardiomyocyte cell cycle entry (quantified by BrdU uptake) ([1]; newborn mice, at P8, FIG. 12E): without a change
progression to M-phase (quantified by H3P-staining) ([1]; newborn mice, at P8, FIG. 12F): without a change
decrease of the proportion of binucleated cardiomyocytes ([1]; newborn mice, treatment from P1 to P4, 10 μg/g, 2 i.p. injections per day, FIG. 12C): 21%
decrease of the proportion/formation of binucleated cardiomyocytes ([1]; newborn mice, treatment from P1 to P8, 2 i.p. injections per day (propranolol 10 μg/g; alprenolol 10 μg/g, 40 μg/g), FIG. 12C, 12G): 17%
increase of cardiomyocyte endowment between P4 and P8 in treated pups ([1]; propranolol-treated pups, from counts): 0.35×10^6 cardiomyocytes
Ect2-positive midbodies ([2]; human fetal cardiomyocytes in cytokinesis, immunofluorescence microscopy, FIG. 14D): increased
block of the dobutamine-stimulated increase in cardiomyocyte cytokinesis failure ([2]; propranolol 10 μM + dobutamine 10 μM, human fetal cardiomyocytes, FIG. 14C): completely
inhibition of the dobutamine-stimulated increase in binucleated cardiomyocytes [3]: completely
